From patent US20260240975A1, “VALIDATED HPV16-DERIVED S[…]” (Deutsches Krebsforschungszentrum Stiftung des öffentlichen …, priority 2023, published 2026)

Columns and labels:
[1] = system: short-term antigen-specific T cell lines generated from PBMCs; test: Interferon-γ ELISpot assay on short-term T cell lines; format: cell-based, human; design: key: +: ELISPOT: Immungenicity of the peptide shown by IFN-gamma ELISPOT analysis; * Highlights data from published resources; +*: * Highlights data from published resources
[2] = system: peptide-specific T cell cultures; test: T cell phenotyping and intracellular cytokine staining (flow cytometry); format: cell-based, human; design: key: +: cytokine: Immunogenicity of the peptide shown by intracellular cytokine staining (IFN-gamma, TNF-alpha); settings: IFN-gamma, TNF-alpha

Substance: 3 (TIHDIILQCVY; Human papillomavirus 16) [compound 3]
- ELISpot ([1]; HLA restriction A01): +
- cytokine ([2]; HLA restriction A01): +

Substance: 4 (YGVCDKCLKFY; Human papillomavirus 16) [compound 4]
- ELISpot ([1]; HLA restriction A01): +
- cytokine ([2]; HLA restriction A01): +

Substance: 5 (EYRYYCYSLY; Human papillomavirus 16) [compound 5]
- ELISpot ([1]; HLA restriction A01): +
- cytokine ([2]; HLA restriction A01): +

Substance: 6 (DLQPETTDLY; Human papillomavirus 16) [compound 6]
- ELISpot ([1]; HLA restriction A01): +
- cytokine ([2]; HLA restriction A01): +

Substance: 7 (TTDLYCYEQ; Human papillomavirus 16) [compound 7]
- ELISpot ([1]; HLA restriction A01): +
- cytokine ([2]; HLA restriction A01): +

Substance: 8 (SKISEYRHYCY; Human papillomavirus 16) [compound 8]
- ELISpot ([1]; HLA restriction A01): +

Substance: 9 (SEYRHYCYSLY; Human papillomavirus 16) [compound 9]
- ELISpot ([1]; HLA restriction A01): +
- ELISpot ([1]; HLA restriction B15): 1

Substance: 10 (ETTDLYCY; Human papillomavirus 16) [compound 10]
- ELISpot ([1]; HLA restriction A01): +

Substance: 24 (LLMGTLGIVC; Human papillomavirus 16) [compound 24]
- ELISpot ([1]; HLA restriction A02): +
- cytokine ([2]; HLA restriction A02): +

Substance: 28 (KLPQLCTELQT; Human papillomavirus 16) [compound 28]
- ELISpot ([1]; HLA restriction A02): +

Substance: 29 (ELQTTIHDI; Human papillomavirus 16) [compound 29]
- ELISpot ([1]; HLA restriction A02): +

Substance: 32 (TLHEYMLDLQP; Human papillomavirus 16) [compound 32]
- ELISpot ([1]; HLA restriction A02): +

Substance: 35 (IILECVYCK; Human papillomavirus 16) [compound 35]
- ELISpot ([1]; HLA restriction A11): +

Substance: 36 (HLDKKQRFH; Human papillomavirus 16) [compound 36]
- ELISpot ([1]; HLA restriction A03): +

Substance: 39 (FAFRDLCIVYR; Human papillomavirus 16) [compound 39]
- ELISpot ([1]; HLA restriction A11): +
- cytokine ([2]; HLA restriction A11): +

Substance: 40 (AFRDLCIVYR; Human papillomavirus 16) [compound 40]
- ELISpot ([1]; HLA restriction A11): +
- cytokine ([2]; HLA restriction A11): +

Substance: 41 (IVYRDGNPY; Human papillomavirus 16) [compound 41]
- ELISpot ([1]; HLA restriction A11): +
- cytokine ([2]; HLA restriction A11): +

Substance: 42 (NPYAVCDKCLK; Human papillomavirus 16) [compound 42]
- ELISpot ([1]; HLA restriction A11): +
- cytokine ([2]; HLA restriction A11): +

Substance: 44 (AVCDKCLKFYS; Human papillomavirus 16) [compound 44]
- ELISpot ([1]; HLA restriction A11): +
- cytokine ([2]; HLA restriction A11): +

Substance: 45 (VCDKCLKFYSK; Human papillomavirus 16) [compound 45]
- ELISpot ([1]; HLA restriction A11): +
- cytokine ([2]; HLA restriction A11): +

Substance: 46 (GIVCPICSQK; Human papillomavirus 16) [compound 46]
- ELISpot ([1]; HLA restriction A03): +
- cytokine ([2]; HLA restriction A03): +

Substance: 47 (MFQDPQERPRK; Human papillomavirus 16) [compound 47]
- ELISpot ([1]; HLA restriction A03): +

Substance: 48 (YAVCDKCLKFY; Human papillomavirus 16) [compound 48]
- ELISpot ([1]; HLA restriction A11): +

Substance: 49 (AVCDKCLK; Human papillomavirus 16) [compound 49]
- ELISpot ([1]; HLA restriction A03): +

Substance: 50 (KCLKFYSKI; Human papillomavirus 16) [compound 50]
- ELISpot ([1]; HLA restriction A03): +

Substance: 51 (KFYSKISEY; Human papillomavirus 16) [compound 51]
- ELISpot ([1]; HLA restriction A03): +
- ELISpot ([1]; HLA restriction A24): +

Substance: 52 (KFYSKISEYR; Human papillomavirus 16) [compound 52]
- ELISpot ([1]; HLA restriction A03): +

Substance: 54 (TTLEQQYNK; Human papillomavirus 16) [compound 54]
- ELISpot ([1]; HLA restriction A03): +

Substance: 55 (DLLIRCINCQK; Human papillomavirus 16) [compound 55]
- ELISpot ([1]; HLA restriction A11): +
- cytokine ([2]; HLA restriction A11): +

Substance: 56 (LIRCINCQK; Human papillomavirus 16) [compound 56]
- ELISpot ([1]; HLA restriction A03): +

Substance: 57 (RCINCQKPLCP; Human papillomavirus 16) [compound 57]
- ELISpot ([1]; HLA restriction A03): +

Substance: 58 (KQRFHNIRGR; Human papillomavirus 16) [compound 58]
- ELISpot ([1]; HLA restriction A03): +

Substance: 59 (LGIVCPICSQK; Human papillomavirus 16) [compound 59]
- ELISpot ([1]; HLA restriction A11): +

Substance: 63 (PYAVCDKCLKF; Human papillomavirus 16) [compound 63]
- ELISpot ([1]; HLA restriction A24): +

Substance: 66 (PDRAHYNIVTF; Human papillomavirus 16) [compound 66]
- ELISpot ([1]; HLA restriction A24): +
- cytokine ([2]; HLA restriction A24): +

Substance: 67 (DRAHYNIVTF; Human papillomavirus 16) [compound 67]
- ELISpot ([1]; HLA restriction A24): +
- cytokine ([2]; HLA restriction A24): +

Substance: 68 (HYNIVTFCC; Human papillomavirus 16) [compound 68]
- ELISpot ([1]; HLA restriction A24): +
- cytokine ([2]; HLA restriction A24): +

Substance: 71 (HYCYSLYGTTL; Human papillomavirus 16) [compound 71]
- ELISpot ([1]; HLA restriction A24): +
- cytokine ([2]; HLA restriction A24): +

Substance: 72 (YSLYGTTL; Human papillomavirus 16) [compound 72]
- ELISpot ([1]; HLA restriction A24): +

Substance: 73 (HLDKKQRFHNI; Human papillomavirus 16) [compound 73]
- ELISpot ([1]; HLA restriction A24): +

Substance: 74 (DKKQRFHN; Human papillomavirus 16) [compound 74]
- ELISpot ([1]; HLA restriction A24): +

Substance: 75 (AHYNIVTF; Human papillomavirus 16) [compound 75]
- ELISpot ([1]; HLA restriction A24): +

Substance: 76 (RPRKLPQL; Human papillomavirus 16) [compound 76]
- ELISpot ([1]; HLA restriction B07): +
- cytokine ([2]; HLA restriction B07): +

Substance: 78 (RPRKLPQLCTE; Human papillomavirus 16) [compound 78]
- ELISpot ([1]; HLA restriction B07): +
- cytokine ([2]; HLA restriction B07): +

Substance: 80 (NIRGRWTGRCM; Human papillomavirus 16) [compound 80]
- ELISpot ([1]; HLA restriction B07): +
- ELISpot ([1]; HLA restriction B15): +
- cytokine ([2]; HLA restriction B07): +

Substance: 81 (EPDRAHYNIV; Human papillomavirus 16) [compound 81]
- ELISpot ([1]; HLA restriction B07): +
- cytokine ([2]; HLA restriction B07): +

Substance: 82 (RPRKLPQLCT; Human papillomavirus 16) [compound 82]
- ELISpot ([1]; HLA restriction B07): +

Substance: 84 (RCMSCCRSSR; Human papillomavirus 16) [compound 84]
- ELISpot ([1]; HLA restriction B07): +

Substance: 85 (KQQLLRREVY; Human papillomavirus 16) [compound 85]
- ELISpot ([1]; HLA restriction B15): +
- cytokine ([2]; HLA restriction B15): +

Substance: 86 (AFRDLCIVY; Human papillomavirus 16) [compound 86]
- ELISpot ([1]; HLA restriction B15): +
- cytokine ([2]; HLA restriction B15): +

Substance: 88 (GQAEPDRAHY; Human papillomavirus 16) [compound 88]
- ELISpot ([1]; HLA restriction B15): +
- cytokine ([2]; HLA restriction B15): +

Substance: 89 (QQLLRREVY; Human papillomavirus 16) [compound 89]
- ELISpot ([1]; HLA restriction B15): +

Substance: 93 (FAFRDLCIVY; Human papillomavirus 16) [compound 93]
- ELISpot ([1]; HLA restriction B15): +

Substance: 94 (LCIVYRDGNPY; Human papillomavirus 16) [compound 94]
- ELISpot ([1]; HLA restriction B15): +

Substance: 95 (YRHYCYSVY; Human papillomavirus 16) [compound 95]
- ELISpot ([1]; HLA restriction B15): +
- cytokine ([2]; HLA restriction B15): +

Substance: 96 (LLRREVYDFAF; Human papillomavirus 16) [compound 96]
- ELISpot ([1]; HLA restriction B15): +

Substance: 97 (LRREVYDFAF; Human papillomavirus 16) [compound 97]
- ELISpot ([1]; HLA restriction B15): +

Substance: 98 (IVYRDGNPYAV; Human papillomavirus 16) [compound 98]
- ELISpot ([1]; HLA restriction B15): +

Substance: 99 (AVCDKCLKF; Human papillomavirus 16) [compound 99]
- ELISpot ([1]; HLA restriction B15): +

Substance: 100 (CLKFYSKISEY; Human papillomavirus 16) [compound 100]
- ELISpot ([1]; HLA restriction B15): +

Substance: 101 (FYSKISEY; Human papillomavirus 16) [compound 101]
- ELISpot ([1]; HLA restriction B15): +

Substance: 104 (SEYRHYCY; Human papillomavirus 16) [compound 104]
- ELISpot ([1]; HLA restriction B15): +

Substance: 105 (QQYNKPLCDL; Human papillomavirus 16) [compound 105]
- ELISpot ([1]; HLA restriction B15): +

Substance: 106 (CQKPLCPEE; Human papillomavirus 16) [compound 106]
- ELISpot ([1]; HLA restriction B15): +

Substance: 107 (KQRHLDKKQRF; Human papillomavirus 16) [compound 107]
- ELISpot ([1]; HLA restriction B15): +

Substance: 108 (KQRFHNIRGRW; Human papillomavirus 16) [compound 108]
- ELISpot ([1]; HLA restriction B15): +
- cytokine ([2]; HLA restriction B15): +

Substance: 109 (TLHEYMLDL; Human papillomavirus 16) [compound 109]
- ELISpot ([1]; HLA restriction B15): +

Substance: 110 (GQAEPDRAH; Human papillomavirus 16) [compound 110]
- ELISpot ([1]; HLA restriction B15): +

Substance: 112 (TTDLYCYEQL; Human papillomavirus 16) [compound 112]
- ELISpot ([1]; HLA restriction A01): +

Substance: 113 (SEYRHYCY; Human papillomavirus 16) [compound 113]
- ELISpot ([1]; HLA restriction A01): +

Substance: 114 (IHEIILECVY; Human papillomavirus 16) [compound 114]
- ELISpot ([1]; HLA restriction A01): +

Substance: 116 (GTTLEQQYNK; Human papillomavirus 16) [compound 116]
- ELISpot ([1]; HLA restriction A03): +

Substance: 117 (RHYCYSLY; Human papillomavirus 16) [compound 117]
- ELISpot ([1]; HLA restriction A03): +
- cytokine ([2]; HLA restriction A03): 1

Substance: 119 (HYNIVTFC; Human papillomavirus 16) [compound 119]
- ELISpot ([1]; HLA restriction A24): +

Substance: 122 (RPRKLPDLCT; Human papillomavirus 16) [compound 122]
- ELISpot ([1]; HLA restriction B07): +
- cytokine ([2]; HLA restriction B07): +

Substance: 123 (CPDEKQRHL; Human papillomavirus 16) [compound 123]
- ELISpot ([1]; HLA restriction B07): +

Substance: 124 (LPQLCTELQT; Human papillomavirus 16) [compound 124]
- ELISpot ([1]; HLA restriction B07): +

Substance: 126 (KISEYRHY; Human papillomavirus 16) [compound 126]
- ELISpot ([1]; HLA restriction B15): +

Substance: 127 (RGRWTGRCM; Human papillomavirus 16) [compound 127]
- ELISpot ([1]; HLA restriction B15): +

Substance: 128 (AGQAEPDRAHY; Human papillomavirus 16) [compound 128]
- ELISpot ([1]; HLA restriction B15): +

Substance: 129 (FYSKISEY; Human papillomavirus 16) [compound 129]
- ELISpot ([1]; HLA restriction B15): +
